Key:
[1] = tested on: CD8+ T cells in PBMCs from patients with metastatic castrate-resistant prostate cancer; assay: Patient PBMC restimulation assay (in vitro immunogenicity of neoantigens); assay type: cell-based, human; conditions: for Immunogenic: Patient PBMC restimulation, TNFα and IFNγ production by CD8+ T cells; for Maximum fold change over negative control: TNFα+IFNγ+CD8+ T cells, highest fold change across the PBMC donors evaluated, 9 mer peptide; for Maximum frequency of TNFα^+IFNγ^+CD8^+ T cells (Percent): greatest frequency among all tested PBMC donors, negative control 0.011-0.8 depending on patient
Experimental: PBMCs from human patients with metastatic castrate-resistant prostate cancer were thawed using media (RPMI 1640 supplemented with Glutamax, 10% HI FBS, and 1× Sodium Pyruvate). Cells were counted and plated in a 96 well round bottom microplate at a concentration of 250,000 viable cells per well. Lyophilized peptides were solubilized in 100% DMSO and diluted in media to 10 μg/mL. Neoantigen peptides were added in equal volume to PBMCs for a final concentration of 5 μg/mL. CEF Peptide Pool “Plus” (Cellular Technologies, Ltd.) was utilized as a positive control and DMSO at the same final concentration as the experimental peptides was utilized as a negative control. Human IL-15 (Peprotech) was added to all wells at final concentration of 10 ng/mL.
Plates were incubated at 37° C. (5% CO2) for a total of 13 days. Media was refreshed every 2 days with IL-15 (10 ng/mL final concentration) and IL-2 (R&D systems, 10 IU/mL final concentration). On day 12, PBMCs were re-stimulated with identical experimental peptides or controls, at same concentration as peptide stimulation on Day 1. After 1-hour incubation, protein Inhibitor Cocktail (eBioscience) was added to every well and plate was incubated overnight.
On day 13, cells were stained for intracellular flow cytometry analysis. The cells were washed with PBS and stained with Live/Dead Fixable Aqua Dead Cell stain (Thermo-Fisher). Following the live/dead stain, cells were blocked using Biotin-Free Fc Receptor Blocker (Accurate Chemical & Scientific Corp). Extracellular cellular flow panel (1 μL/antibody per well in 50 μL) consisted of CD3 PerCP-Cy5.5 (Biolegend), CD4 BV421 (Biolegend), and CD8 APC-Cy7 (Biolegend). After extracellular staining, cells were fixed using Foxp3/Transcription Factor Staining Buffer Set (eBioscience) and stained for intracellular proteins (1:50 dilution) using TNFα FITC (R&D Systems) and IFNγ BV785 (Biolegend). Cells were washed and resuspended in stain buffer and analyzed using a BD Celesta flow cytometer.
Flow cytometry cell staining analysis was completed using FlowJo v10. Cells were gated on live, singlet, CD3+ cells. The CD8+ T cells were analyzed for TNFα/IFNγ expression and the frequency of double positive TNFα/IFNγ CD8+ T cells was recorded. Responses were assessed to be positive when the frequency of double positive TNFα/IFNγ CD8+ T cells due to stimulation with an experimental peptide was increased greater than or equal to 2-fold over the DMSO only negative control for that patient. Peptides were analyzed in 1 to 7 patient samples.
The 9 mer fragments shown in Table 13 were assessed for their ability to activate T cells using the Patient PBMC restimulation assay described in Example 1 using TNFα and IFNγ production by CD8^+ T cells as a readout. Self-antigens shown in Table 15 were also used in the assays. […] PBMCs from ten patients were evaluated.

[2] = tested on: autologous CD3+ Pan-T cells (CD8+ and CD4+ T cells) with Ad5-transduced CD1c+ Dendritic Cells; assay: Endogenous autologous normal donor restimulation assay (Ad5-transduced dendritic cells); assay type: cell-based, human; conditions: Table 27, restimulation with overlapping 15-mer peptide pools, maximum across sixteen donors
Experimental: CD1c+ Dendritic Cells (DC) isolated from human normal PBMCs were thawed using media (IMDM (Gibco) supplemented with glutamine, HEPES, 5% human serum (Sigma), and 1× Pen-Strep). DC cells were resuspended in media supplemented with IL-4 (Peprotech, 80 ng/mL) and GM-CSF (Gibco, 80 ng/mL), plated in 6 well microplates, and rested overnight at 37° C. (5% CO2). The following day, DC cells were counted and plated in a 96 well round bottom microplate at a concentration of 30,000 viable cells per well. Ad5 vectors (Vector Biolabs) were dilute in media to an MOI (Multiplicity Of Infection) of 5000 based on Plaque Forming Units. Ad5 vectors for the CEF pool and a “null” were used as controls. DCs were transduced with Ad5 vectors overnight at 37° C. (5% CO2). The following day, the Ad5 vectors were washed off the plate by three sequential centrifugation/aspiration steps using sterile Phosphate Buffered Saline. After the final wash, transduced DCs were resuspended in 100 μL media. Autologous CD3+ Pan-T cells isolated from human normal PBMCs were thawed using media. Pan-T cells were added to the irradiated DCs at 300,000 viable cells per well (100 μL/well). Human IL-15 (Peprotech) was added to all wells at final concentration of 10 ng/mL.
Plates were incubated at 37° C. (5% CO2) for a total of 12 days. Media was refreshed every 2-3 days with IL-15 (10 ng/mL final concentration) and IL-2 (R&D systems, 10 IU/mL final concentration). On day 11 lyophilized peptides (15-mer overlapping peptides) were solubilized in 100% DMSO and pooled by neoantigen to between 5 mg/mL and 20 mg/mL. […]
On day 12, cells were stained for intracellular flow cytometry analysis. […] Cells were washed and resuspended in stain buffer and analyzed using a BD Celesta flow cytometer.
Flow cytometry cell staining analysis was completed using FlowJo v10. […] The CD8+ and CD4+ T cells were analyzed for TNFα/IFNγ expression and the frequency of double positive TNFα/IFNγ CD8+ and the frequency of double positive TNFα/IFNγ CD4+ T cells were recorded. Responses were assessed to be positive when the frequency of double positive TNFα/IFNγ CD8+ or TNFα/IFNγ CD4+ T cells due to stimulation with an experimental peptide pool was increased greater than or equal to 3-fold over the DMSO only negative control for that donor and at least 0.01%.
For three of the neoantigens, an Ad5 vector was designed to transduce normal Dendritic cells with the neoantigens. This assay assessed the ability of the endogenously expressed and presented neoantigens to activate autologous T cells following overlapping 15-mer peptide pools restimulation using the endogenous autologous normal donor restimulation assay described in Example 1 utilizing TNFα and IFNγ production by CD8^+ and CD4^+ T cells as a readout. […]

Sequence: SLYHREKQLIAMDSAI [Neoantigen P22]
- Immunogenic [1]: Yes
- Maximum fold change over negative control [1]: 5.00
- Maximum frequency of TNFα^+IFNγ^+CD8^+ T cells (Percent) [1]: 0.120%

Sequence: YEAGMTLGEKFRVGNCKHLKMTRP [Neoantigen P82]
- Immunogenic [1]: Yes
- Maximum fold change over negative control [1]: 3.46
- Maximum frequency of TNFα^+IFNγ^+CD8^+ T cells (Percent) [1]: 0.970%

Sequence: YEAGMTLGGKILFFLFLLLPLSPFSLIF [Neoantigen P87]
- Immunogenic [1]: Yes
- Maximum fold change over negative control [1]: 3.24
- Maximum frequency of TNFα^+IFNγ^+CD8^+ T cells (Percent) [1]: 0.120%
- Maximum Fold Change Over Background CD4+ cells [2]: 2.41
- Maximum Fold Change Over Background CD8+ cells [2]: 2.47
- Maximum Frequency of TNFα/IFNγ Double Positive CD4+ T cells [2]: 0.079
- Maximum Frequency of TNFα/IFNγ Double Positive CD8+ T cells [2]: 0.39

Reference: patent publication US20230035403A1, “Method For Determining Responsiveness To Prostate Cancer Treatment” (Janssen Biotech, Inc., priority 2020, published 2023)
